Experimental data from the supplement of paper PMC10307832.

Columns and labels:
Assay in all cases: relative viability (nuclei count vs DMSO), 5 days (fraction); higher = more cells survive
[1] = compound: O=C1NC(=O)[C@@H](c2cn3c4c(cccc24)CCC3)[C@@H]1c1c[nH]c2ccccc12 [Tivantinib] + Cc1nc(Nc2ncc(C(=O)Nc3c(C)cccc3Cl)s2)cc(N2CCN(CCO)CC2)n1 [Dasatinib] (partner 0.075 µM)
How it was run: (§1)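 A single step with final 0.05% Triton X-100, 1% formaldehyde and 1 ug/ml Hoechst fixed the cells and stained nuclei 5 days after treatment. Lung cancer cell lines in 1536-well plates had been treated by pin tool the day after seeding with one drug alone or a fixed anchor-drug dose plus five library-drug doses (not always all listed) in √10 steps, and nuclei were counted on 4× images. Relative viability is the ratio of nuclei in treated wells to nuclei in vehicle wells, taken as the median of duplicate plates.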

[2] = compound: CC1(COc2ccc3c(c2)ncn3-c2ccc3cccc(N4CCC(N)CC4)c3n2)COC1 [Crenolanib] + O=C(CCCCCCC(=O)Nc1ccccc1)NO [Vorinostat] (partner 1 µM)
How it was run: as §1

[3] = compound: O=C1NC(=O)[C@@H](c2cn3c4c(cccc24)CCC3)[C@@H]1c1c[nH]c2ccccc12 [Tivantinib] + O=C(CCCCCCC(=O)Nc1ccccc1)NO [Vorinostat] (partner 1 µM)
How it was run: as §1

[4] = compound: O=C1NC(=O)[C@@H](c2cn3c4c(cccc24)CCC3)[C@@H]1c1c[nH]c2ccccc12 [Tivantinib] + Nc1ncn([C@H]2C[C@H](O)[C@@H](CO)O2)c(=O)n1 [Decitabine] (partner 2 µM)
How it was run: as §1

Cell Line | relative viability ([1]; first compound 0.01 µM) | relative viability ([1]; first compound 0.03162 µM) | relative viability ([1]; first compound 0.1 µM) | relative viability ([1]; first compound 0.3162 µM) | relative viability ([2]; first compound 0.01 µM) | relative viability ([2]; first compound 0.03162 µM) | relative viability ([2]; first compound 0.1 µM) | relative viability ([2]; first compound 0.3162 µM) | relative viability ([2]; first compound 1 µM) | relative viability ([3]; first compound 0.01 µM) | relative viability ([3]; first compound 0.03162 µM) | relative viability ([3]; first compound 0.1 µM) | relative viability ([3]; first compound 0.3162 µM) | relative viability ([4]; first compound 0.01 µM) | relative viability ([4]; first compound 0.03162 µM) | relative viability ([4]; first compound 0.1 µM) | relative viability ([4]; first compound 0.3162 µM)
NCI-H1993 | 0.649 | 0.7 | 1.35 | 0.583 | 0.956 | 0.728 | 0.777 | 0.797 | 0.729 | 0.84 | 0.704 | 0.728 | 0.66 | 0.59 | 0.503 | 0.506 | 0.539
NCI-H1944 | 0.219 | 0.196 | 0.211 | 0.208 | 0.586 | 0.591 | 0.491 | 0.693 | 0.4 | 0.565 | 0.448 | 0.501 | 0.492 | 0.43 | 0.451 | 0.44 | 0.401
LXF-289 | 0.302 | 0.261 | 0.19 | 0.175 | 0.734 | 0.798 | 0.712 | 0.723 | 0.637 | 0.756 | 0.725 | 0.733 | 0.778 | 0.37 | 0.375 | 0.367 | 0.367
NCI-H2405 | 0.213 | 0.213 | 0.218 | 0.169 | 1.03 |  | 0.93 | 1.12 | 0.706 | 1.17 | 1.04 | 1 | 1.26 | 0.754 | 0.789 | 0.73 | 0.79
NCI-H2023 | 0.678 | 0.564 | 0.506 | 0.521 | 0.705 | 0.531 | 0.617 | 0.813 | 0.634 | 0.698 | 0.676 | 0.62 | 0.516 | 0.24 | 0.218 | 0.212 | 0.221
HCC-366 | 0.629 | 0.594 | 0.495 | 0.681 | 0.377 | 0.357 | 0.335 | 0.426 | 0.216 | 0.389 | 0.287 | 0.373 | 0.415 | 0.349 | 0.289 | 0.324 | 0.301
HCC-78 | 0.416 | 0.376 | 0.378 | 0.377 | 0.441 | 0.424 | 0.493 | 0.433 | 0.386 | 0.48 | 0.408 | 0.346 | 0.337 | 0.707 | 0.694 | 0.667 | 0.702
COR-L23 | 0.498 | 0.542 | 0.48 | 0.5 | 0.553 | 0.559 | 0.394 | 0.5 | 0.476 | 0.528 | 0.509 | 0.426 | 0.608 | 0.496 | 0.446 | 0.433 | 0.445
HCC-827 | 0.237 | 0.295 | 0.375 | 0.131 | 0.985 | 0.837 | 0.809 | 0.7 | 0.753 | 0.826 | 0.809 | 0.862 |  | 0.312 | 0.396 | 0.316 | 
NCI-H1355 | 0.666 | 0.668 | 0.675 | 0.564 | 0.661 | 0.674 | 0.626 | 0.706 | 0.481 | 0.611 | 0.571 | 0.675 | 0.61 | 0.377 | 0.316 | 0.342 | 0.381
NCI-H838 | 0.324 | 0.296 | 0.274 | 0.276 | 0.747 | 0.74 | 0.698 | 0.722 | 0.738 | 0.728 | 0.724 | 0.693 | 0.776 | 0.446 | 0.48 | 0.428 | 0.442
NCI-H2126 | 0.583 | 0.676 | 0.594 | 0.565 | 0.8 | 0.836 | 0.691 | 0.815 | 0.684 | 0.723 | 0.482 | 0.772 | 0.512 | 0.57 | 0.549 | 0.587 | 0.547
BEN | 0.293 | 0.308 | 0.382 | 0.359 | 0.569 | 0.516 | 0.581 | 0.595 | 0.555 | 0.591 | 0.566 | 0.528 | 0.515 | 0.755 | 0.69 | 0.631 | 0.796
LCLC-97TM1 | 0.796 | 0.61 | 0.869 | 0.824 | 0.822 | 0.83 | 0.792 | 0.832 | 0.536 | 0.71 | 0.284 | 0.671 | 0.833 | 0.232 | 0.226 | 0.226 | 0.211
EKVX | 0.615 | 0.431 | 0.618 | 0.315 | 0.928 | 0.752 | 0.722 | 0.888 | 0.654 | 0.732 | 0.725 | 0.704 | 0.383 | 0.312 | 0.351 | 0.381 | 0.153
ABC-1 | 0.629 | 0.742 | 0.566 | 0.516 | 0.991 | 0.679 | 1.13 | 1.17 | 0.934 | 1.44 | 1.32 | 1.01 | 1.21 | 1.23 | 1.22 | 0.825 | 0.968
IA-LM |  |  |  |  | 1.06 | 0.971 | 0.956 | 0.905 | 0.678 | 1.01 | 0.826 | 0.87 | 0.895 |  |  |  | 
NCI-H1563 | 0.453 | 0.443 | 0.514 | 0.399 |  |  |  |  |  |  |  |  |  |  |  |  | 
NCI-H1648 |  |  |  |  | 0.599 |  | 0.293 | 0.466 | 0.433 |  | 0.445 | 0.528 | 0.272 |  | 0.507 | 0.513 | 0.397
NCI-H1792 | 0.902 | 0.714 | 0.675 | 0.481 |  |  |  |  |  |  |  |  |  | 0.535 |  | 0.473 | 0.505
A549 |  |  |  |  |  |  |  |  |  |  |  |  |  | 0.246 | 0.276 | 0.228 | 0.294
NCI-H1623 | 0.464 | 0.424 | 0.494 |  |  |  |  |  |  |  |  |  |  |  |  |  | 
CAL-12T | 0.479 | 0.499 | 0.403 | 0.238 | 0.781 | 0.67 | 0.631 | 0.966 | 0.66 | 0.67 | 0.874 | 0.74 | 0.568 |  |  |  | 
